Drawing on ChEMBL document CHEMBL3886397, “Agent for treatment of eye diseases” (2015), this text covers IC50 for two compounds.

The assay has as its target Transitional endoplasmic reticulum ATPase (Mus musculus, UniProt Q01853). Nature of the assay: Inhibition Assay: Mouse VCP cDNA was added with a DNA sequence corresponding to histidine tag at the amino-terminal, subcloned into a baculovirus vector pVL1392 (BD Bioscience), and expressed in Sf-9 insect cells. The protein was purified with a nickel column (GE Healthcare). The concentration of the protein was adjusted to 0.25-0.5 ug/ml and the protein was stored in a solution containing 50 mM TrisCl pH 8.0, 5 mM EDTA, 10% glycerol, and 15 mM DTT. The ATPase activity was determined as follows. 500 ng of the purified VCP was mixed with 100 uM [gamma-32P]ATP (18.5 GBq/mmol) and the test substance in 20 uL of ATPase buffer (20 mM HEPES (pH7.4), 50 mM KCl, 5 mM MgCl2, 15 mM DTT), and incubated at 37° C. for 10 minutes.The enzyme reaction was stopped with addition of 200 uL of an ice-cold solution containing 7% TCA and 1 mM K2HPO4. 50ul of a solution containing 3.75% ammonium molybdate and 0.02M tungstate silicic/3 NH2SO4 was added, followed by 300 uL of […].

Sequence of Transitional endoplasmic reticulum ATPase (Q01853 whole entry): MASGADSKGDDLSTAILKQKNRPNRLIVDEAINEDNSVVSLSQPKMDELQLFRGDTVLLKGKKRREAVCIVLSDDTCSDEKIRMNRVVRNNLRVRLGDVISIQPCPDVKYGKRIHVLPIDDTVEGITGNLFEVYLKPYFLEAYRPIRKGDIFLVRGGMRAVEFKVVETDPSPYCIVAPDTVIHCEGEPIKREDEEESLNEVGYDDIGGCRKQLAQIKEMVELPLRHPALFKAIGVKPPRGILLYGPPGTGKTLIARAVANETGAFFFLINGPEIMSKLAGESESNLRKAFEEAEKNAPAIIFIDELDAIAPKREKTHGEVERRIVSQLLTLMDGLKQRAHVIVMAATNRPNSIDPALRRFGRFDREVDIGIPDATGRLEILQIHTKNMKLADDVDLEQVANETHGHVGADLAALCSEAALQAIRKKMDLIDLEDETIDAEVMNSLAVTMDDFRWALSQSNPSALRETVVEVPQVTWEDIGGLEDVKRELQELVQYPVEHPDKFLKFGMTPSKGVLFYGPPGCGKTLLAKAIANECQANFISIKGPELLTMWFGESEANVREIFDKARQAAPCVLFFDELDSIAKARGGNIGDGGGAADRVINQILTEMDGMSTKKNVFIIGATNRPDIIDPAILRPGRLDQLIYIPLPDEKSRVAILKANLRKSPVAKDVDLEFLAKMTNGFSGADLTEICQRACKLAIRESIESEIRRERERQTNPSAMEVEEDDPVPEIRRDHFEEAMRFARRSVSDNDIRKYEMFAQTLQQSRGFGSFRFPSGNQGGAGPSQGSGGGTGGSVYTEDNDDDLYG

As to `CC(=O)c1ccc(-c2ccc(/N=N/c3cc(S(=O)(=O)O)c4ccccc4c3N)cn2)cc1`, it took 136 nM to reach half-maximal inhibition (IC50). Under `Nc1c(/N=N/c2ccc(-c3cc(C(F)(F)F)cc(C(F)(F)F)c3)nc2)cc(S(=O)(=O)O)c2ccccc12` stands 2750 nM.
